Experimental data: ChEMBL document CHEMBL6096734, “Design, Synthesis and Anti-Inflammatory Evaluation of 3-Substituted 5-Amidobenzoate Derivatives as Novel P2Y14 Receptor Antagonists via Structure-Guided Molecular Hybridization” (J Med Chem, 2025)
pIC50: −log10 of the molar value. Blank lines part the entries; values can stand above or below the compound they belong to.

Legend:
[1] = Cmax in male Sprague-Dawley rat at 10 mg/kg, iv measured upto 24 hrs; format: ADME, organism-based; conditions: in vivo
[2] = Half life in male Sprague-Dawley rat at 10 mg/kg, iv measured upto 24 hrs; format: ADME, organism-based; conditions: in vivo
[3] = Tmax in male Sprague-Dawley rat at 10 mg/kg, iv measured upto 24 hrs; format: ADME, organism-based; conditions: in vivo
[4] = AUC (0 to 24 hrs) in male Sprague-Dawley rat at 10 mg/kg, iv measured upto 24 hrs; format: ADME, organism-based; conditions: in vivo
[5] = Clearance in male Sprague-Dawley rat at 10 mg/kg, iv measured upto 24 hrs; format: ADME, organism-based; conditions: in vivo
[6] = Cmax in male Sprague-Dawley rat at 20 mg/kg, po measured upto 24 hrs; format: ADME, organism-based; conditions: in vivo
[7] = Half life in male Sprague-Dawley rat at 20 mg/kg, po measured upto 24 hrs; format: ADME, organism-based; conditions: in vivo
[8] = Tmax in male Sprague-Dawley rat at 20 mg/kg, po measured upto 24 hrs; format: ADME, organism-based; conditions: in vivo
[9] = AUC (0 to 24 hrs) in male Sprague-Dawley rat at 20 mg/kg, po measured upto 24 hrs; format: ADME, organism-based; conditions: in vivo
[10] = Clearance in male Sprague-Dawley rat at 20 mg/kg, po measured upto 24 hrs; format: ADME, organism-based; conditions: in vivo
[11] = Oral bioavailability in male Sprague-Dawley rat at 20 mg/kg measured upto 24 hrs; format: ADME, organism-based; conditions: in vivo
RAW264.7 [12] = assay: Anti-inflammatory activity in LPS-induced ALI in mouse RAW264.7 cells assessed as decrease in intracellular ROS level by DCFH-DA staining based flow cytometry analysis (reference value: 91.2%); format: functional; set-up: scale not given: the % may be the effect or the level left
RAW264.7 [13] = assay: Induction of pyroptosis in LPS induced mouse RAW264.7 cells by caspase-1/PI staining based flow cytometry (reference value: 49.6 %); format: functional
P2Y purinoceptor 1 = P2Y purinoceptor 1 (Homo sapiens, UniProt P47900); assay: Antagonist activity at human P2Y1R stably expressed in HEK293 cells assessed as inhibition of ADP-induced IP3 accumulation preincubated with compound for 30 mins followed by ADP addition by ELISA method; format: functional, cell-based
P2Y purinoceptor 2 = P2Y purinoceptor 2 (Homo sapiens, UniProt P41231); assay: Antagonist activity at human P2Y2R stably expressed in HEK293 cells assessed as inhibition of UTP-induced IP3 accumulation preincubated with compound for 30 mins followed by UTP addition by ELISA method; format: functional, cell-based
P2Y purinoceptor 4 = P2Y purinoceptor 4 (Homo sapiens, UniProt P51582); assay: Antagonist activity at human P2Y4R stably expressed in HEK293 cells assessed as inhibition of UTP-induced IP3 accumulation preincubated with compound for 30 mins followed by UTP addition by ELISA; format: functional, cell-based
P2Y purinoceptor 6 = P2Y purinoceptor 6 (Homo sapiens, UniProt Q15077); assay: Antagonist activity at human P2Y6R stably expressed in HEK293 cells assessed as inhibition of UDP-induced IP3 accumulation preincubated with compound for 30 mins followed by UDP addition by ELISA; format: functional, cell-based
P2Y purinoceptor 12 = P2Y purinoceptor 12 (Homo sapiens, UniProt Q9H244); assay: Antagonist activity at human P2Y12R stably expressed in HEK293 cells assessed as inhibition of 2-MeSADP-induced IP3 accumulation preincubated with compound for 30 mins followed by 2-MeSADP addition by ELISA; format: functional, cell-based
Cytochrome P450 1A2 = target: T1, Cytochrome P450 1A2 (Homo sapiens, UniProt P05177); assay: Inhibition of CYP1A2 in human liver microsomes using phenacetin as substrate measured after 30 mins by LC/MS analysis; format: ADME, Microsome
T1 sequence (P05177 whole entry): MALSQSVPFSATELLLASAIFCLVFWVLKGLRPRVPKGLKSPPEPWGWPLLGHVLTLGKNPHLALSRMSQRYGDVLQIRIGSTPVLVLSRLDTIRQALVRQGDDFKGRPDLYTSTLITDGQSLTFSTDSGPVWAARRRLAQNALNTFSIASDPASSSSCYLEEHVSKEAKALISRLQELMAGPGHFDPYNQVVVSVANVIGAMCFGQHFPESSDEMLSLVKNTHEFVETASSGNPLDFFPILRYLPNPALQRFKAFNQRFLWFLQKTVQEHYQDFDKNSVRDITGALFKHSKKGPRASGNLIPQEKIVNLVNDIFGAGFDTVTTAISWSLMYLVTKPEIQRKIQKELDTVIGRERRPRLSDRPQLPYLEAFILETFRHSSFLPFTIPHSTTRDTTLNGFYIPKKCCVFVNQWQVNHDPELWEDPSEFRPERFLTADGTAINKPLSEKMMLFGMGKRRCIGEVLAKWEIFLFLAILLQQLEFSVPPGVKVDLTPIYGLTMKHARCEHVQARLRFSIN

Cytochrome P450 2C9 = Cytochrome P450 2C9 (Homo sapiens, UniProt P11712); assay: Inhibition of CYP2C9 in human liver microsomes using diclofenac as substrate measured after 30 mins by LC/MS analysis; format: ADME, Microsome
Cytochrome P450 2C19 = Cytochrome P450 2C19 (Homo sapiens, UniProt P33261); assay: Inhibition of CYP2C19 in human liver microsomes using mephenytoin as substrate measured after 30 mins by LC/MS analysis; format: ADME, Microsome
Cytochrome P450 2D6 = Cytochrome P450 2D6 (Homo sapiens, UniProt P10635); assay: Inhibition of CYP2D6 in human liver microsomes using dextromethorphan as substrate measured after 30 mins by LC/MS analysis; format: ADME, Microsome
Cytochrome P450 3A4 = Cytochrome P450 3A4 (Homo sapiens, UniProt P08684); assay: Inhibition of CYP3A4 in human liver microsomes using midazolam as substrate measured after 30 mins by LC/MS analysis; format: ADME, Microsome
[14] = Stability of the compound in stimulated intestinal fluid assessed as half life; format: physicochemical; conditions: simulated intestinal fluid
[15] = Stability of the compound in stimulated gastric fluid assessed as half life; format: physicochemical; conditions: simulated gastric fluid
[16] = Metabolic stability in human liver microsomes assessed as intrinsic clearance at […] measured upto 45 mins in presence of NADPH by LC-MS analysis; format: ADME, Microsome; conditions: read-out: CLH
[17] = Metabolic stability in human liver microsomes assessed as half life at […] measured upto 45 mins in presence of NADPH by LC-MS analysis; format: ADME, Microsome
RAW264.7 [18] = assay: Cytotoxicity in mouse Raw264.7 cells at <80 uM incubated for 24 hrs by SRB method; format: toxicity, cell-based; conditions: raw264.7, 24 h

P2Y purinoceptor 6, sequence (Q15077 whole entry): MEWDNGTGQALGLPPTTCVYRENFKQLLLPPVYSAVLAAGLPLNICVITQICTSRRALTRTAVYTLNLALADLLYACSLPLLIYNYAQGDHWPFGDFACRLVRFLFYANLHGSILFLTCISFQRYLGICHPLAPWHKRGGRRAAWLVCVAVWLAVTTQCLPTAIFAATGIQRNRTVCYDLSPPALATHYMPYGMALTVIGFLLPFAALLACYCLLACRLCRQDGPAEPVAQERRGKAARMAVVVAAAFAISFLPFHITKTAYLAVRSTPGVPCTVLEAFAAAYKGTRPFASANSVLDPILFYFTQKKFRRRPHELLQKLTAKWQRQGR
P2Y purinoceptor 12, sequence (Q9H244 whole entry): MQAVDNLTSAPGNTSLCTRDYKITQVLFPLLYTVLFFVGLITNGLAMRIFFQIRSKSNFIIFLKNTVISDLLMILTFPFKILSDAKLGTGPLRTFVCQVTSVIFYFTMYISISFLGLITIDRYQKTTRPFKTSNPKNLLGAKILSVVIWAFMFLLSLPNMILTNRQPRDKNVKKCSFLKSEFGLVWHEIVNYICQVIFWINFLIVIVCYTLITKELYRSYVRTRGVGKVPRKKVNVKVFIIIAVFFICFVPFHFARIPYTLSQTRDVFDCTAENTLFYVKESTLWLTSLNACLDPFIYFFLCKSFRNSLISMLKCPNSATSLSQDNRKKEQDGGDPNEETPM
Cytochrome P450 2C9, sequence (P11712 whole entry): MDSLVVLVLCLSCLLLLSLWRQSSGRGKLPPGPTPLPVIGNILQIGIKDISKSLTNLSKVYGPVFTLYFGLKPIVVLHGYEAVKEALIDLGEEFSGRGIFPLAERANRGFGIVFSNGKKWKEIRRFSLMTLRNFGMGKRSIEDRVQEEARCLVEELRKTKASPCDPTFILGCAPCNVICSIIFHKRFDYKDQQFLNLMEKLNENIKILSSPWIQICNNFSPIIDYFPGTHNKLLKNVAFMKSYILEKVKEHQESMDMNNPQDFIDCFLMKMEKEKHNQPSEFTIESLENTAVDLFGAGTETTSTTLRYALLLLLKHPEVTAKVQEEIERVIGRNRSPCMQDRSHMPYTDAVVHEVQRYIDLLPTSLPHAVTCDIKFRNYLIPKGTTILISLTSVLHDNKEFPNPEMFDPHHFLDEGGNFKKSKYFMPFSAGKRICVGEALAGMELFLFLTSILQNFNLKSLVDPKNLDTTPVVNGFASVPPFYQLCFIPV
P2Y purinoceptor 2, sequence (P41231 whole entry): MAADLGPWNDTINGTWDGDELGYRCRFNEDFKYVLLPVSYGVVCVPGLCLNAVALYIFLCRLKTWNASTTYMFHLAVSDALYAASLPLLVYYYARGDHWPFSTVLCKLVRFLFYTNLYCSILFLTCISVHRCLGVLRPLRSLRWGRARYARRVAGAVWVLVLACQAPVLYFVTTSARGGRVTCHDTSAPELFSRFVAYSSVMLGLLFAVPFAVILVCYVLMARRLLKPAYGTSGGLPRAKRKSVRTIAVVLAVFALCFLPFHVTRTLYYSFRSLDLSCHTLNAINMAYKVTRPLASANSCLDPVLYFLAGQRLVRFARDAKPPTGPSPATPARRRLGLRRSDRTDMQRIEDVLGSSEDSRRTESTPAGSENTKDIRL
P2Y purinoceptor 4, sequence (P51582 whole entry): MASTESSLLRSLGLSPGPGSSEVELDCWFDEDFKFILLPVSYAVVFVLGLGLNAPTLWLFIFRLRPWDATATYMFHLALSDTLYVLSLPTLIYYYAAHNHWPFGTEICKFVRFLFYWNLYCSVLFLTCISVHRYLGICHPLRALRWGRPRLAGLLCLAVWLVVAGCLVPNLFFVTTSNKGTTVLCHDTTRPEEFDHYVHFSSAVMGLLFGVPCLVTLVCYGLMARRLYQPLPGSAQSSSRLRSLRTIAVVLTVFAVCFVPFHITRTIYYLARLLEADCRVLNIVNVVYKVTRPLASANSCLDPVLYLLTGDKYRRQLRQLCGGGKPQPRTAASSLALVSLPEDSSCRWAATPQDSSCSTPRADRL
Cytochrome P450 2D6, sequence (P10635 whole entry): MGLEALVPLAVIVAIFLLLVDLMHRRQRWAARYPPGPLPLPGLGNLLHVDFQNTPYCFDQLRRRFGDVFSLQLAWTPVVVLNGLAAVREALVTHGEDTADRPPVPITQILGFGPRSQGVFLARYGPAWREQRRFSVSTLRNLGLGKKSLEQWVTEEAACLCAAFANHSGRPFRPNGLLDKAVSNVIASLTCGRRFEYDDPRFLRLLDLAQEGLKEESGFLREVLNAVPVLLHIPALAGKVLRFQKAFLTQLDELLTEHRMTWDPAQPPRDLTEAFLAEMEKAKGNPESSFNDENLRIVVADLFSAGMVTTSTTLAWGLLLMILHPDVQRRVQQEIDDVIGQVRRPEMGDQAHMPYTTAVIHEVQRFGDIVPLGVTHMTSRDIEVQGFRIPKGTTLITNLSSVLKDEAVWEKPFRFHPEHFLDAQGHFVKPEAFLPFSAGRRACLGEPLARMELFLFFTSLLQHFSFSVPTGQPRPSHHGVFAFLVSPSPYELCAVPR
Cytochrome P450 2C19, sequence (P33261 whole entry): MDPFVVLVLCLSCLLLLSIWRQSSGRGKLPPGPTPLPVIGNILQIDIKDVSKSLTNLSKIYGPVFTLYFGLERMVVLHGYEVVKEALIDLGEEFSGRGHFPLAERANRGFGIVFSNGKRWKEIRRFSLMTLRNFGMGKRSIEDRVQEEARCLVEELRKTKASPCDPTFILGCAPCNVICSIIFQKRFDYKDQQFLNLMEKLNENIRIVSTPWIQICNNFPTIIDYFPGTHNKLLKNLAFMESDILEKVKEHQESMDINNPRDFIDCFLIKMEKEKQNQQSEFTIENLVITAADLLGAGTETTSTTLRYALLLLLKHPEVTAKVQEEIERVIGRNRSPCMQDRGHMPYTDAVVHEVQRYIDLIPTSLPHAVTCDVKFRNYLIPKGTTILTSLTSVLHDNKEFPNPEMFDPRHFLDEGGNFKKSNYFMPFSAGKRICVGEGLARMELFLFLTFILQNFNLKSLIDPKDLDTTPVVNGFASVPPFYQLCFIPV
P2Y purinoceptor 1, sequence (P47900 whole entry): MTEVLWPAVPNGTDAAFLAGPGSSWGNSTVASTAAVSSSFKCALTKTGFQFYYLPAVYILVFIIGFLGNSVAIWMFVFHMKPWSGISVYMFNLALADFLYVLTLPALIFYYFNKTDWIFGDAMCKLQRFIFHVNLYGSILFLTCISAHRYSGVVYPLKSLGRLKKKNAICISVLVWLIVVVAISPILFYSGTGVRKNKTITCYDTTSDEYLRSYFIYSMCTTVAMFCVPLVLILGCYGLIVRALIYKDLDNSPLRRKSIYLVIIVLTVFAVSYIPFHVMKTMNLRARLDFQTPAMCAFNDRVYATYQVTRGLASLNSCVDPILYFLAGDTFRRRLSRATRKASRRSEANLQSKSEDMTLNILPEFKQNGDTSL
Cytochrome P450 3A4, sequence (P08684 whole entry): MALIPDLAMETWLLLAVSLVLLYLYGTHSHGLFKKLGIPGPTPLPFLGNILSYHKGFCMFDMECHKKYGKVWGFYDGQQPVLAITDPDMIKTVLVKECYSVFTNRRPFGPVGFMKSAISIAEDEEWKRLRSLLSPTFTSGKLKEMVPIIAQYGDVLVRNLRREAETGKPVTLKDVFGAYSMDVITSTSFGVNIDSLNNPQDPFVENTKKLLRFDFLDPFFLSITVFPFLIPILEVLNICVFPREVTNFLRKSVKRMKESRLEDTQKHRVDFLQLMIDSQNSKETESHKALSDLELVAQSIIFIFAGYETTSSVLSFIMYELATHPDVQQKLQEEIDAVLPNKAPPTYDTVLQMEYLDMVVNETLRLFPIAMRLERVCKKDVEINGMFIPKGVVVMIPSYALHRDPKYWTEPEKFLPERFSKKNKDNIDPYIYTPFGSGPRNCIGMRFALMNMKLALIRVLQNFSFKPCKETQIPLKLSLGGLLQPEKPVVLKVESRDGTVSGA

Cmax ([1]; iv, 10 mg/kg, 24 h): 1024 ng/mL | t1/2 ([2]; iv, 10 mg/kg, 24 h): 12 min | Tmax ([3]; iv, 10 mg/kg, 24 h): 8 min | AUC ([4]; iv, 10 mg/kg, 24 h): 2411 ng·h/mL | clearance [5]: 11.5 mL/min/kg | Cmax [6]: 1540 ng/mL | half-life [7]: 24 min | Tmax [8]: 17 min | AUC ([9]; po, 20 mg/kg, 24 h): 3001 ng·h/mL | CL/F [10]: 22.1 mL/min/kg | F ([11]; po, 20 mg/kg, 24 h): 12%
Compound: O=C(O)c1cc(-c2ccc(C3CCNCC3)cc2)c2ccc(-c3ccc(C(F)(F)F)cc3)cc2c1 [PPTN]
Activity (RAW264.7 [12]): 58.7% | Activity (RAW264.7 [13]): 8.93%

pIC50 (P2Y purinoceptor 1): < 4.00 | pIC50 (P2Y purinoceptor 2): < 4.00 | pIC50 (P2Y purinoceptor 4): < 4.00 | pIC50 (P2Y purinoceptor 6): 4.32 | pIC50 (P2Y purinoceptor 12): < 4.00 | pIC50 (Cytochrome P450 1A2): < 4.52 | pIC50 (Cytochrome P450 2C9): < 4.52 | pIC50 (Cytochrome P450 2C19): < 4.52 | pIC50 (Cytochrome P450 2D6): < 4.52 | pIC50 (Cytochrome P450 3A4): < 4.52 | half-life [14]: > 300 min | half-life [15]: > 50 h | microsomal CLint [16]: 25.6 µL/min/mg | half-life [17]: 354 min | Cmax ([1]; male, Sprague-Dawley, read-out: Cmax): 964 ng/mL | half-life ([2]; male, Sprague-Dawley): 48 min | Tmax ([3]; male, Sprague-Dawley, read-out: Tmax (converted)): 19 min | AUC(0-t) at 24 h ([4]; male, Sprague-Dawley): 895 ng·h/mL | clearance [5]: 26.1 mL/min/kg | Cmax [6]: 1940 ng/mL | half-life [7]: 96 min | Tmax [8]: 26 min | AUC(0-t) at 24 h ([9]; male, Sprague-Dawley): 1120 ng·h/mL | CL/F [10]: 46.5 mL/min/kg | bioavailability ([11]; male, Sprague-Dawley): 38%
Compound: COC(=O)c1cc(NC(=O)Cc2ccc(C)cc2)cc(-c2nc3ccccc3[nH]2)c1
Activity (RAW264.7 [18]): Non-toxic
